Experimental findings from the supplement of paper PMC12513837 are described below.

Compound in this test: CC(=O)N1CCc2c(c(N3CCCc4cc(-c5cnn(C)c5)c(C(F)F)cc43)nn2C2CCC(CN3CCN(c4ccc5c(c4)C(=O)N(C4CCC(=O)NC4=O)C5=O)CC3)CC2)C1 [CBPD-409]
The test is described as follows: AUC of viability dose-response curve (relative to vehicle, 8 doses up to 10 µM) (fraction); higher = less sensitive (more viable); extreme values may be limits of the assay. The protocol:
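PRISM multiplexed pooled barcoded cell line viability screen at the Broad Institute, 887 cancer cell lines treated with CBPD-409 (p300/CBP PROTAC degrader) at 8 concentrations in threefold dilution, top dose 10 µM. The read-out is the area under the dose-response curve of relative viability versus vehicle (n=3). AUC < 0.3 is called strongly sensitive and AUC > 0.8 resistant.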

± gives the standard deviation of the averaged measurements.

GOS3_CENTRAL_NERVOUS_SYSTEM: the “AUC of viability dose-response curve” value amounted to 0.79.

In the case of SNU46_UPPER_AERODIGESTIVE_TRACT, the “AUC of viability dose-response curve” value was 0.547. The figure for TE6_OESOPHAGUS is 0.914; for WM88_SKIN it is 0.893; for UMUC11_URINARY_TRACT it is 0.736.

For LS1034_LARGE_INTESTINE, the “AUC of viability dose-response curve” value is 0.295. As for VAL_HAEMATOPOIETIC_AND_LYMPHOID_TISSUE, the “AUC of viability dose-response curve” value was 0.56.

Turning to SKUT1_SOFT_TISSUE, the “AUC of viability dose-response curve” value turned out to be 0.609.

As to PK59_PANCREAS, the “AUC of viability dose-response curve” value was determined as 0.694. For CH157MN_CENTRAL_NERVOUS_SYSTEM the value was 0.899.

For BFTC909_KIDNEY, the “AUC of viability dose-response curve” value is 1.

For the test system SUM159PT_BREAST, the “AUC of viability dose-response curve” value stood at 0.732. For T24_URINARY_TRACT the value was 1; for YD8_UPPER_AERODIGESTIVE_TRACT, 0.641.

For the test system RO82W1_THYROID, the “AUC of viability dose-response curve” value is 1.

As to EM2_HAEMATOPOIETIC_AND_LYMPHOID_TISSUE, the “AUC of viability dose-response curve” value stood at 0.613. For the test system “CMLT1_HAEMATOPOIETIC_AND_LYMPHOID_TISSUE”, the “AUC of viability dose-response curve” value worked out at 0.666. For NIHOVCAR3_OVARY the value was 1. For “JURLMK1_HAEMATOPOIETIC_AND_LYMPHOID_TISSUE” the value was 0.361. For NCIH1373_LUNG the value was 1; for SKNAS_AUTONOMIC_GANGLIA, 1; for “SUDHL4_HAEMATOPOIETIC_AND_LYMPHOID_TISSUE”, 0.958.

As for MM1S_HAEMATOPOIETIC_AND_LYMPHOID_TISSUE, the “AUC of viability dose-response curve” value turned out to be 0.328. The figure for SKNDZ_AUTONOMIC_GANGLIA is 0.267. The figure for 8MGBA_CENTRAL_NERVOUS_SYSTEM is 0.79. HEC251_ENDOMETRIUM: the “AUC of viability dose-response curve” value was found to be 0.841. For SNU761_LIVER the value was 0.855; for SW1990_PANCREAS, 1; for MESSA_SOFT_TISSUE, 0.126. For SUM149PT_BREAST the value was 0.789; for HARA_LUNG, 0.981; for SNU478_BILIARY_TRACT, 0.861.

Turning to TT_THYROID, the “AUC of viability dose-response curve” value was found to be 0.15. As to RI1_HAEMATOPOIETIC_AND_LYMPHOID_TISSUE, the “AUC of viability dose-response curve” value worked out at 0.424. On to IALM_LUNG, for which the “AUC of viability dose-response curve” value amounted to 0.311. The figure for PMFKO14_LARGE_INTESTINE is 0.705; for YD15_SALIVARY_GLAND it is 0.397; for SW626_LARGE_INTESTINE it is 0.387. For LPS141_SOFT_TISSUE the value was 1.

Consider DMS273_LUNG, for which the “AUC of viability dose-response curve” value was determined as 0.976. For SNU410_PANCREAS the value was 1; for CAPAN2_PANCREAS, 1; for SW620_LARGE_INTESTINE, 0.559.

With MDAMB453_BREAST, the “AUC of viability dose-response curve” value was determined as 0.401. The figure for “SUDHL1_HAEMATOPOIETIC_AND_LYMPHOID_TISSUE” is 0.75.

In the case of H376_UPPER_AERODIGESTIVE_TRACT, the “AUC of viability dose-response curve” value is 0.862. The figure for IHH4_THYROID is 0.762; for SNU1214_UPPER_AERODIGESTIVE_TRACT it is 0.739; for BL2_HAEMATOPOIETIC_AND_LYMPHOID_TISSUE it is 0.77. The figure for GP2D_LARGE_INTESTINE is 0.847; for A375_SKIN it is 0.47. Consider TYKNU_OVARY, for which the “AUC of viability dose-response curve” value amounted to 0.386.

On to A673_BONE, for which the “AUC of viability dose-response curve” value worked out at 1.

With NCIH292_LUNG, the “AUC of viability dose-response curve” value stood at 0.831. The figure for ABC1_LUNG is 0.977; for TC205_BONE it is 0.543; for NB1_AUTONOMIC_GANGLIA it is 0.112 ± 0.083.

Regarding LOXIMVI_SKIN, the “AUC of viability dose-response curve” value came to 0.845. The figure for HA1E_KIDNEY is 0.542; for “OCIM1_HAEMATOPOIETIC_AND_LYMPHOID_TISSUE” it is 0.286. The figure for JMSU1_URINARY_TRACT is 1; for 697_HAEMATOPOIETIC_AND_LYMPHOID_TISSUE it is 0.293; for EBC1_LUNG it is 0.537. As for LN18_CENTRAL_NERVOUS_SYSTEM, the “AUC of viability dose-response curve” value stood at 0.607. For LK2_LUNG the value was 0.178; for SKMEL28_SKIN, 0.575; for SNU398_LIVER, 0.849. Regarding “KMS28BM_HAEMATOPOIETIC_AND_LYMPHOID_TISSUE”, the “AUC of viability dose-response curve” value turned out to be 0.583. The figure for RERFLCMS_LUNG is 0.837; for NCIH2452_PLEURA it is 1. In the case of DU4475_BREAST, the “AUC of viability dose-response curve” value is 0.831. For MEWO_SKIN the value was 0.268; for “OCILY19_HAEMATOPOIETIC_AND_LYMPHOID_TISSUE”, 0.725. The figure for RHJT_SOFT_TISSUE is 0.512; for “OCIAML5_HAEMATOPOIETIC_AND_LYMPHOID_TISSUE” it is 0.461; for SKMEL3_SKIN it is 0.818. For NCIH650_LUNG the value was 0.606. Regarding “KARPAS620_HAEMATOPOIETIC_AND_LYMPHOID_TISSUE”, the “AUC of viability dose-response curve” value came to 0.449. The figure for KMCH1_BILIARY_TRACT is 0.96; for SW480_LARGE_INTESTINE it is 1. For SKPNDW_BONE the value was 1; for G402_SOFT_TISSUE, 0.514 ± 0.18. The figure for 94T778_SOFT_TISSUE is 0.951. On to KNS60_CENTRAL_NERVOUS_SYSTEM, for which the “AUC of viability dose-response curve” value worked out at 0.779.

As to 1777NRPMET_TESTIS, the “AUC of viability dose-response curve” value amounted to 0.655. In the case of NCIH1355_LUNG, the “AUC of viability dose-response curve” value amounted to 1. As for HEC1B_ENDOMETRIUM, the “AUC of viability dose-response curve” value is 0.998.

H157_UPPER_AERODIGESTIVE_TRACT: the “AUC of viability dose-response curve” value is 0.993. For KMRC3_KIDNEY the value was 0.906; for PSN1_PANCREAS, 0.639. The figure for U937_HAEMATOPOIETIC_AND_LYMPHOID_TISSUE is 1. For NCIH1792_LUNG the value was 0.59; for BECKER_CENTRAL_NERVOUS_SYSTEM, 0.88. MIAPACA2_PANCREAS: the “AUC of viability dose-response curve” value worked out at 1.

Regarding UACC62_SKIN, the “AUC of viability dose-response curve” value stood at 0.901. The figure for NCIH1838_LUNG is 0.758; for ISTMES2_PLEURA it is 0.579. The figure for UPCISCC111_UPPER_AERODIGESTIVE_TRACT is 1. The figure for HTMMT_ENDOMETRIUM is 0.65; for NCIH647_LUNG it is 1; for 786O_KIDNEY it is 0.84. Consider COGN278_AUTONOMIC_GANGLIA, for which the “AUC of viability dose-response curve” value was found to be 0.345. The figure for HEC50B_ENDOMETRIUM is 0.851; for T3M5_THYROID it is 0.776; for A172_CENTRAL_NERVOUS_SYSTEM it is 0.797. The figure for NCIH2004RT_SOFT_TISSUE is 1; for GI1_CENTRAL_NERVOUS_SYSTEM it is 0.602; for HEPG2_LIVER it is 1.

In the case of NCIH2126_LUNG, the “AUC of viability dose-response curve” value worked out at 1. The figure for MON_SOFT_TISSUE is 0.486. For CCK81_LARGE_INTESTINE the value was 0.86; for PL21_HAEMATOPOIETIC_AND_LYMPHOID_TISSUE, 0.499. For “KARPAS1718_HAEMATOPOIETIC_AND_LYMPHOID_TISSUE” the value was 0.585; for SKM1_HAEMATOPOIETIC_AND_LYMPHOID_TISSUE, 1; for KP3_PANCREAS, 1.

For OCIC4P_OVARY, the “AUC of viability dose-response curve” value worked out at 0.99. On to BEN_LUNG, for which the “AUC of viability dose-response curve” value turned out to be 0.562.
